# Several values for one entry are separate records, joined by “and”; a condition that tells them apart may be missing. Equal entries are not always repeated.
# Test system: 435261-313-R-J1-PDC tumor spheroid viability
# Test: Anticancer human tumor 435261-313-R-J1-PDC patient-derived colon adenocarcinoma cell line growth inhibition [PI3K]
# Details: spheroids with HUVEC and MSC; for viability, T/C: stronger effect = lower value
# In short: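 Complex 3D spheroids (cancer cells + endothelial HUVEC + mesenchymal stem cells); drug pairs of targeted agent x inavolisib/alpelisib/duvelisib/copanlisib; half-log series from ~Cmax, max 10 microM if Cmax unknown; endpoint viability.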
# [1] = curve of first compound, second compound 0.0316 µM
# [2] = curve of first compound, second compound 0.1 µM
# [3] = curve of first compound, second compound 0.316 µM
# [4] = curve of first compound, second compound 1 µM
# [5] = curve of first compound, second compound 3.16 µM
# [6] = curve of first compound, second compound 10 µM
# [7] = second compound 0.0316 µM, first compound 0.0316 µM
# [8] = second compound 0.0316 µM, first compound 0.1 µM
# [9] = second compound 0.1 µM, first compound 0.0316 µM
# [10] = second compound 0.1 µM, first compound 0.1 µM
# [11] = second compound 0.316 µM, first compound 0.0316 µM
# [12] = second compound 0.316 µM, first compound 0.1 µM
# [13] = second compound 1 µM, first compound 0.0316 µM
# [14] = second compound 1 µM, first compound 0.1 µM
# [15] = second compound 3.16 µM, first compound 0.0316 µM
# [16] = second compound 3.16 µM, first compound 0.1 µM
# [17] = second compound 10 µM, first compound 0.0316 µM
# [18] = second compound 10 µM, first compound 0.1 µM
# 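Also: spheroids exposed to compounds for 7 days.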
smiles,measurement,setting,value
CC(=O)c1c(C)c2cnc(Nc3ccc(N4CCNCC4)cn3)nc2n(C2CCCC2)c1=O + Cc1nc(NC(=O)N2CCCC2C(N)=O)sc1-c1ccnc(C(C)(C)C(F)(F)F)c1,IC50,[1],> 100 nM
same,IC50,[2],> 100 nM
same,IC50,[3],0.316 nM
same,IC50,[4],< 0.316 nM
same,IC50,[5],< 0.316 nM
same,IC50,[6],< 0.316 nM
same,"viability, T/C","second compound 0.0316 µM, first compound 0.000316 µM",61.5%
same,"viability, T/C","second compound 0.0316 µM, first compound 0.001 µM",91.9%
same,"viability, T/C","second compound 0.0316 µM, first compound 0.00316 µM",96.5%
same,"viability, T/C","second compound 0.0316 µM, first compound 0.01 µM",66%
same,"viability, T/C",[7],88.5%
same,"viability, T/C",[8],59.1%
same,"viability, T/C","second compound 0.1 µM, first compound 0.000316 µM",68%
same,"viability, T/C","second compound 0.1 µM, first compound 0.001 µM",69.4%
same,"viability, T/C","second compound 0.1 µM, first compound 0.00316 µM",69.5%
same,"viability, T/C","second compound 0.1 µM, first compound 0.01 µM",69.5%
same,"viability, T/C",[9],74.7%
same,"viability, T/C",[10],66.1%
same,"viability, T/C","second compound 0.316 µM, first compound 0.000316 µM",40.9%
same,"viability, T/C","second compound 0.316 µM, first compound 0.001 µM",60.9%
same,"viability, T/C","second compound 0.316 µM, first compound 0.00316 µM",40.9%
same,"viability, T/C","second compound 0.316 µM, first compound 0.01 µM",52.5%
same,"viability, T/C",[11],41.3%
same,"viability, T/C",[12],32.5%
same,"viability, T/C","second compound 1 µM, first compound 0.000316 µM",26.9%
same,"viability, T/C","second compound 1 µM, first compound 0.001 µM",27.5%
same,"viability, T/C","second compound 1 µM, first compound 0.00316 µM",35.2%
same,"viability, T/C","second compound 1 µM, first compound 0.01 µM",33.5%
same,"viability, T/C",[13],26.6%
same,"viability, T/C",[14],21.2%
same,"viability, T/C","second compound 3.16 µM, first compound 0.000316 µM",14.7%
same,"viability, T/C","second compound 3.16 µM, first compound 0.001 µM",14.2%
same,"viability, T/C","second compound 3.16 µM, first compound 0.00316 µM",13.9%
same,"viability, T/C","second compound 3.16 µM, first compound 0.01 µM",16.8%
same,"viability, T/C",[15],16.9%
same,"viability, T/C",[16],15.9%
same,"viability, T/C","second compound 10 µM, first compound 0.000316 µM",10.2%
same,"viability, T/C","second compound 10 µM, first compound 0.001 µM",7.93%
same,"viability, T/C","second compound 10 µM, first compound 0.00316 µM",7.66%
same,"viability, T/C","second compound 10 µM, first compound 0.01 µM",9.02%
same,"viability, T/C",[17],10.4%
same,"viability, T/C",[18],5.66%
C#Cc1c(F)ccc2cc(O)cc(-c3ncc4c(N5CC6CCC(C5)N6)nc(OCC56CCCN5CC(F)C6)nc4c3F)c12 (centres undefined) + Cc1nc(NC(=O)N2CCCC2C(N)=O)sc1-c1ccnc(C(C)(C)C(F)(F)F)c1,IC50,[1],5470 nM
same,IC50,[2],2130 nM
same,IC50,[3],1060 nM
same,IC50,[4],< 31.6 nM
same,IC50,[5],< 31.6 nM
same,IC50,[6],< 31.6 nM
same,"viability, T/C",[7],73.7%
same,"viability, T/C",[8],78%
same,"viability, T/C","second compound 0.0316 µM, first compound 0.316 µM",102%
same,"viability, T/C","second compound 0.0316 µM, first compound 1 µM",49%
same,"viability, T/C","second compound 0.0316 µM, first compound 3.16 µM",70.5%
same,"viability, T/C","second compound 0.0316 µM, first compound 10 µM",35.6%
same,"viability, T/C",[9],61.1%
same,"viability, T/C",[10],77%
same,"viability, T/C","second compound 0.1 µM, first compound 0.316 µM",98.3%
same,"viability, T/C","second compound 0.1 µM, first compound 1 µM",58.2%
same,"viability, T/C","second compound 0.1 µM, first compound 3.16 µM",43.8%
same,"viability, T/C","second compound 0.1 µM, first compound 10 µM",18.4%
same,"viability, T/C",[11],39.2%
same,"viability, T/C",[12],67.5%
same,"viability, T/C","second compound 0.316 µM, first compound 0.316 µM",46.2%
same,"viability, T/C","second compound 0.316 µM, first compound 1 µM",51.7%
same,"viability, T/C","second compound 0.316 µM, first compound 3.16 µM",27.1%
same,"viability, T/C","second compound 0.316 µM, first compound 10 µM",12.6%
same,"viability, T/C",[13],23.7%
same,"viability, T/C",[14],27%
same,"viability, T/C","second compound 1 µM, first compound 0.316 µM",28.4%
same,"viability, T/C","second compound 1 µM, first compound 1 µM",27.9%
same,"viability, T/C","second compound 1 µM, first compound 3.16 µM",13.9%
same,"viability, T/C","second compound 1 µM, first compound 10 µM",7.05%
same,"viability, T/C",[15],17.1%
same,"viability, T/C",[16],19.7%
same,"viability, T/C","second compound 3.16 µM, first compound 0.316 µM",11.3%
same,"viability, T/C","second compound 3.16 µM, first compound 1 µM",8.79%
same,"viability, T/C","second compound 3.16 µM, first compound 3.16 µM",6.05%
same,"viability, T/C","second compound 3.16 µM, first compound 10 µM",1.23%
same,"viability, T/C",[17],9.19%
same,"viability, T/C",[18],6.14%
same,"viability, T/C","second compound 10 µM, first compound 0.316 µM",3.65%
same,"viability, T/C","second compound 10 µM, first compound 1 µM",3.37%
same,"viability, T/C","second compound 10 µM, first compound 3.16 µM",2.05%
same,"viability, T/C","second compound 10 µM, first compound 10 µM",0.32%
C=CC(=O)N1CCN(c2nc(=O)n(-c3c(C)ccnc3C(C)C)c3nc(-c4c(O)cccc4F)c(F)cc23)C(C)C1 (centres undefined),"viability, T/C",compound 0.0316 µM,92% [middle of 4 runs]
same,"viability, T/C",compound 0.316 µM,109% [middle of 4 runs]
same,"viability, T/C",compound 3.16 µM,137% and 124% (2×) and 123%
same,"viability, T/C",compound 10 µM,109% [middle of 4 runs]
same,IC50,curve of compound,> 10000 nM

# From PubChem BioAssay AID1963976 (Molecular Pharmacology Branch, DTP, NCI, 2024)
